Counter-ions that a name gives are not always drawn.

The target in this assay is T1, Human FAAH (Homo sapiens, UniProt O00519).
T1 construct: made in house
T1 sequence (O00519 1-579): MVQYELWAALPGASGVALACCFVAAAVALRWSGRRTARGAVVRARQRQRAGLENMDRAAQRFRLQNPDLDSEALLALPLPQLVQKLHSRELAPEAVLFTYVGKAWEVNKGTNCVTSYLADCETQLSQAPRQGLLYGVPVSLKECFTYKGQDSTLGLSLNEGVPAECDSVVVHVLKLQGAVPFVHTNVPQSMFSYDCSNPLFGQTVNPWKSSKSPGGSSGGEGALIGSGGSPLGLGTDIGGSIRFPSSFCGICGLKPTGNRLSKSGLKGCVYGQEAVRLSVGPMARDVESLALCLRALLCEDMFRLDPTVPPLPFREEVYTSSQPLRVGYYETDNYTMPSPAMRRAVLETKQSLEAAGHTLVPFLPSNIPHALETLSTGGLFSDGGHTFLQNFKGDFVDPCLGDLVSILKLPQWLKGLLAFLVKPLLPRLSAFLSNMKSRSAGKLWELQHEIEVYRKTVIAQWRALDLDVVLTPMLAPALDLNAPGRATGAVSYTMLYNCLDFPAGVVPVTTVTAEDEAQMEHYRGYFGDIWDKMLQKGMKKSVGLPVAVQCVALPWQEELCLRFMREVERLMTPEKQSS
Nature of the assay: FAAH assay (glutamate dehydrogenase-coupled, oleamide substrate, absorbance at 340 nm). Type of assay: biochemical. To be noted: irreversible inhibition, 1-4 nM FAAH, pH 7.4, 30° C., 90 min, read-out: hFAAH kinact/Ki.
Regarding `O=C(Nc1onc2ccccc12)N1CCC(=Cc2cccc(Oc3ccc(C(F)(F)F)cn3)c2)CC1` [Example 6, N-2,1-benzisoxazol-3-yl-4-(3-{[5-(trifluoromethyl)pyridin-2-yl]oxy}benzylidene)piperidine-1-carboxamide], the kinact/KI turned out to be 2510 M⁻¹ s⁻¹.
The same measure for `O=C(Nc1cccnc1)N1CCC(=C(F)c2cccc(Oc3ccc(C(F)(F)F)cn3)c2)CC1` [Example 69, 4-(fluoro(3-(5-(trifluoromethyl)pyridin-2-yloxy)phenyl)methylene)-N-(pyridin-3-yl)piperidine-1-carboxamide]: 2300 M⁻¹ s⁻¹.
The value for `CCOc1ccc(Oc2cccc(C=C3CCN(C(=O)Nc4cccnc4)CC3)c2)nc1` [Example 47, 4-(3-(5-ethoxypyridin-2-yloxy)benzylidene)-N-(pyridin-3-yl)piperidine-1-carboxamide] was 4490 M⁻¹ s⁻¹; that for `O=C(Nc1cccnn1)N1CCC(=Cc2cccc(Oc3ncc(F)cn3)c2)CC1` [Example 108, 4-{3-[(5-fluoropyrimidin-2-yl)oxy]benzylidene}-N-pyridazin-3-ylpiperidine-1-carboxamide] was 1120 M⁻¹ s⁻¹.
In the case of `O=C(Nc1cccnn1)N1CCC(=Cc2cccc(Oc3ccc(OCC(F)(F)F)cc3)c2)CC1` [Example 100, N-pyridazin-3-yl-4-{3-[4-(2,2,2-trifluoroethoxy)phenoxy]benzylidene}piperidine-1-carboxamide], the kinact/KI worked out at 2000 M⁻¹ s⁻¹.
The same measure for `O=C(Nc1cccnn1)N1CCC(=Cc2cccc(Oc3ccc(N4CCCC4)cn3)c2)CC1` [Example 85, 4-(3-(5-(pyrrolidin-1-yl)pyridin-2-yloxy)benzylidene)-N-(pyridazin-3-yl)piperidine-1-carboxamide]: 1540 M⁻¹ s⁻¹.
With `CCc1cc(Oc2cccc(C=C3CCN(C(=O)Nc4cccnn4)CC3)c2)nc(C(F)(F)F)n1` [Example 115, 4-(3-{[6-ethyl-2-(trifluoromethyl)pyrimidin-4-yl]oxy}benzylidene)-N-pyridazin-3-ylpiperidine-1-carboxamide], the kinact/KI is under 11.2 M⁻¹ s⁻¹.
The same measure for `O=C(Nc1cccnc1)N1CCC(=Cc2cccc(OCc3ccccc3)c2)CC1` [Example 17, 4-[3-(benzyloxy)benzylidene]-N-pyridin-3-ylpiperidine-1-carboxamide]: 1620 M⁻¹ s⁻¹; for `Cc1cccc(Oc2cccc(C=C3CCN(C(=O)Nc4cccnc4)CC3)c2)n1` [Example 40, 4-(3-(6-methylpyridin-2-yloxy)benzylidene)-N-(pyridin-3-yl)piperidine-1-carboxamide]: 554 M⁻¹ s⁻¹; for `Cc1noc(C)c1NC(=O)N1CCC(=Cc2cccc(Oc3ccc(C(F)(F)F)cn3)c2)CC1` [Example 133, N-(3,5-dimethylisoxazol-4-yl)-4-(3-{[5-(trifluoromethyl)pyridin-2-yl]oxy}benzylidene)piperidine-1-carboxamide]: 36.8 M⁻¹ s⁻¹.
For `O=C(Nc1cccnn1)N1CCC(=Cc2cccc(Oc3ccc(C(F)(F)F)cc3)c2)CC1` [Example 54, 4-(3-(4-(trifluoromethyl)phenoxy)benzylidene)-N-(pyridazin-3-yl)piperidine-1-carboxamide], the kinact/KI turned out to be 12000 M⁻¹ s⁻¹.
The same measure for `O=C(Nc1cnc(-c2ccccc2)cn1)N1CCC(=Cc2cccc(Oc3ccc(C(F)(F)F)cn3)c2)CC1` [Example 21, N-(5-phenyl-pyrazin-2-yl)-4-(3-{[5-(trifluoromethyl)pyridin-2-yl]oxy}benzylidene)piperidine-1-carboxamide]: 1850 M⁻¹ s⁻¹; for `O=C(Nc1cccnn1)N1CCC(=Cc2cccc(Oc3ncc(Br)cn3)c2)CC1` [Example 37, 4-(3-(5-bromopyrimidin-2-yloxy)benzylidene)-N-(pyridazin-3-yl)piperidine-1-carboxamide]: 15100 M⁻¹ s⁻¹; for `O=C(Nc1cccnc1)N1CCC(=Cc2cccc(Oc3ccc(OCC(F)(F)F)cn3)c2)CC1` [Example 49, 4-(3-(5-(2,2,2-trifluoroethoxy)pyridin-2-yloxy)benzylidene)-N-(pyridin-3-yl)piperidine-1-carboxamide]: 6560 M⁻¹ s⁻¹.
On to `COc1cncc(NC(=O)N2CCC(=Cc3cccc(Oc4ccc(C(F)(F)F)cn4)c3)CC2)c1` [Example 130, N-(5-methoxypyridin-3-yl)-4-(3-{[5-(trifluoromethyl)pyridin-2-yl]oxy}benzylidene)piperidine-1-carboxamide], for which the kinact/KI worked out at 944 M⁻¹ s⁻¹.
The value for `O=C(Nc1cccnc1)N1CCC(=Cc2cc(Br)cc(Oc3ccc(C(F)(F)F)cn3)c2)CC1` [Example 62, 4-(3-bromo-5-(5-(trifluoromethyl)pyridin-2-yloxy)benzylidene)-N-(pyridin-3-yl)piperidine-1-carboxamide] was 1370 M⁻¹ s⁻¹.
The value for `CCc1ccnc(NC(=O)N2CCC(=Cc3cccc(Oc4ccc(C(F)(F)F)cn4)c3)CC2)c1` [Example 141, N-(4-ethylpyridin-2-yl)-4-(3-{[5-(trifluoromethyl)pyridin-2-yl]oxy}benzylidene)piperidine-1-carboxamide] was 117 M⁻¹ s⁻¹; that for `O=C(Nc1cccnc1)N1CCC(=Cc2cccc(Oc3ccc(N4CCCC4)cn3)c2)CC1` [Example 86, 4-(3-(5-(pyrrolidin-1-yl)pyridin-2-yloxy)benzylidene)-N-(pyridin-3-yl)piperidine-1-carboxamide] was 856 M⁻¹ s⁻¹; that for `N#Cc1ccc(NC(=O)N2CCC(=Cc3cccc(Oc4ccc(C(F)(F)F)cn4)c3)CC2)cn1` [Example 11, N-(6-cyanopyridin-3-yl)-4-(3-{[5-(trifluoromethyl)pyridin-2-yl]oxy}benzylidene)piperidine-1-carboxamide hydrochloride] was 4040 M⁻¹ s⁻¹.
On to `Cc1cccc(C(=O)NC(=O)N2CCC(=Cc3cccc(Oc4ccc(C(F)(F)F)cn4)c3)CC2)n1` [Example 16, 6-methyl-N-{[4-(3-{[5-(trifluoromethyl)pyridin-2-yl]oxy}benzylidene)piperidin-1-yl]carbonyl}pyridine-2-carboxamide], for which the kinact/KI is 2150 M⁻¹ s⁻¹.
For `O=C(Nc1cccnn1)N1CCC(=Cc2cccc(Oc3ncc4cccnc4n3)c2)CC1` [Example 102, N-pyridazin-3-yl-4-[3-(pyrido[2,3-d]pyrimidin-2-yloxy)benzylidene]piperidine-1-carboxamide], the kinact/KI was 1390 M⁻¹ s⁻¹.
The same measure for `COc1ccc(-c2cnc(Oc3cccc(C=C4CCN(C(=O)Nc5cccnn5)CC4)c3)nc2)cc1` [Example 104, 4-(3-{[5-(4-methoxyphenyl)pyrimidin-2-yl]oxy}benzylidene)-N-pyridazin-3-ylpiperidine-1-carboxamide]: 105 M⁻¹ s⁻¹.
`O=C(Nc1cccnn1)N1CCC(=Cc2cccc(Oc3ccc(OCC(F)(F)F)cn3)c2)CC1` [Example 50, 4-(3-(5-(2,2,2-trifluoroethoxy)pyridin-2-yloxy)benzylidene)-N-(pyridazin-3-yl)piperidine-1-carboxamide]: the kinact/KI came to 5670 M⁻¹ s⁻¹.
On to `Cc1ccnc(NC(=O)N2CCC(=Cc3cccc(Oc4ccc(C(F)(F)F)cn4)c3)CC2)c1` [Example 135, N-(4-methylpyridin-2-yl)-4-(3-{[5-(trifluoromethyl)pyridin-2-yl]oxy}benzylidene)piperidine-1-carboxamide], for which the kinact/KI was determined as 173 M⁻¹ s⁻¹.
The same measure for `COc1ccc(NC(=O)N2CCC(=Cc3cccc(Oc4ccc(C(F)(F)F)cn4)c3)CC2)cn1` [Example 8, N-(6-methoxypyridin-3-yl)-4-(3-{[5-(trifluoromethyl)pyridin-2-yl]oxy}benzylidene)piperidine-1-carboxamide]: 10100 M⁻¹ s⁻¹.

Source of the values: patent US8044052B2, “Biaryl ether urea compounds” (Pfizer Inc., priority 2006, dated 2011).
